From patent US10370391B2, “Hydrogen peroxide-activable, anti-oxidant compounds and methods using same” (Beth Israel Deaconess Medical Center, Inc., priority 2014, dated 2019)

Columns and labels:
iNOS = iNOS level in LPS-stimulated macrophage cells; type: cell-based, mouse
Experimental: (§1) FIG. 4, comprising FIGS. 4A-4F, is a set of graphs, bar graphs and images illustrating anti-oxidant and anti-inflammatory effects of BRAP in vitro. […] The generation of ROS was monitored by flow cytometry as an indicator of DCF fluorescence. Fluorescence was analyzed in 10,000 cells with excitation at 480 nm and emission at 530 nm. FIG. 4C: Protective effect of BRAP on H2O2— stimulated adult rat cardiomyocytes. V=vehicle, *<0.05 vs. V+H2O2 (n=4). […] (n=4/group).
(§2) The anti-inflammatory effects of BRAP on LPS-stimulated cells were investigated by measuring the level of inflammatory cytokines such as TNF-α (tumor necrosis factor-alpha) and iNOS (inducible nitric oxide synthases) (FIGS. 4E-4F). […] These observations indicate that BRAP, as well as BRAP-encapsulated PLGA microparticles, is able to scavenge overproduced H2O2 and serve as a H2O2-activable anti-oxidant. Further, the enhanced anti-oxidant activity of BRAP is derived from the combined effects of H2O2-scavenging boronic esters and HBA generation after H2O2-mediated boronate oxidation.

[1] = H2O2 scavenging by peroxalate chemiluminescence (diphenyl oxalate, rubrene); conditions: H2O2 solution 10 μM; HBA alone 10 μM
Experimental: FIG. 21 is a bar graph illustrating H2O2-scavenging by BRAP-encapsulated PLGA microparticles. BRAP-encapsulated PLGA microparticles were incubated in H2O2 solution (10 μM) for 10 minutes, and the level of H2O2 was determined by peroxalate chemiluminesce using rubrene (1 mg) and diphenylperoxalate (10 mg).
Without wishing to be limited by any theory, BRAP could scavenge H2O2 during its H2O2-mediated boronate oxidation. This possibility was investigated using peroxalate chemiluminescence. Peroxalate chemiluminescence has been used as a versatile tool for the detection of a variety of chemical species including fluorescent molecules and H2O2 because of its excellent specificity and simplicity (Hadd, et al., 1999, J. Chem. Educ. 76:1237; Lee, et al., 2011, Bull. Korean Chem. Soc. 32:2187). […] A majority of H2O2 was scavenged by the same concentration of BRAP within 1 minutes.
The ability of the boronate compound to scavenge H2O2 was evaluated by measuring the chemiluminescence intensity after the reaction with diphenyl oxalate solution including rubrene. The boronate (1 μM, or 10 μM) was added in the H2O2 solution (10 μM). After 1 min reaction with H2O2, diphenyl oxalate solution was added to the H2O2 solution, and the chemiluminescence intensity was measured by using a luminometer (Femtomaster FB 12, Zylux Corporation, TN, US; FIG. 13).
The ability of BRAP to scavenge H2O2 was evaluated by measuring the chemiluminescence intensity after the reaction with diphenyl oxalate solution including rubrene. BRAP (1 μM, 5 μM, 10 μM, 20 μM) was added in the H2O2 solution (10 μM). After 1, 5 or 10 min reaction with H2O2, diphenyl oxalate solution was added to the H2O2 solution, and the chemiluminescence intensity was measured by using a luminometer (Femtomaster FB 12, Zylux Corporation, TN, US).

hepatic I/R injury = assay: Mouse model of hepatic I/R injury; type: in vivo; conditions: ip at reperfusion
Experimental: FIG. 5, comprising FIGS. 5A-5D, is a set of images and bar graphs illustrating beneficial effects of BRAP in hepatic I/R (1 hour ischemia/12 hour reperfusion) injury. FIG. 5A: Hematoxylin and eosin (H/E) staining, DHE staining, and TUNEL staining of mouse liver after injection with HBA or BRAP. FIGS. 5B-5D: Quantitative analysis of serum ALT levels (FIG. 5B), cleaved caspase-3 protein expression (FIG. 5C), and TNF-α protein expression (FIG. 5D) after I/R injury. *p<0.01 relative to Veh I/R. †p<0.05 relative to HBA I/R (n=3˜4/group). Actin protein expression was used as an internal control for protein loading.
Experiments to evaluate whether BRAP reduces ROS generation and inhibits apoptosis were performed in a mouse model of […] I/R injuries. I/R was induced first by 1 hour of ligation of hepatic artery and portal vein followed by reperfusion of hepatic artery. BRAP or HBA was then administrated intraperitoneally (ip) at the time of reperfusion.
Hepatic I/R surgery was performed in 12 week-old male mice. Briefly, mice were anaesthetized, and midline incision was performed for laparotomy. After identifying the portal triad and biliary tree, the main trunk of hepatic artery and portal vein were clamped with vascular clip except for the vasculatures to the right lower lobe to achieve ischemic injury to approximately 70% of the liver. After 1 hour of ischemia, reperfusion was achieved by releasing the vascular clip. No vascular clamp was done for the sham group of mice.
For liver apoptosis assay, terminal deoxynucleotidyl transferase dUTP nick end labeling (TUNEL) staining was performed using a DeadEnd™ Fluorometric TUNEL kit (Promega, Madison, Wis.). Tissue sections were stained for nuclei (4′,6-diamidino-2-phenylindole (DAPI) staining) and apoptotic nuclei (TUNEL staining) and analyzed using a confocal laser scanning microscope. For heart tissues, TUNEL staining was performed using in situ cell death detection Kit, fluorescein (Roche Applied Science, Indianapolis, Ind.). To distinguish cardiomyocyte from non-cardiomyocyte nuclei, triple stain for nuclei (DAPI staining), apoptotic nuclei (TUNEL staining), and cardiomyocytes (α-Actinin staining) was used, and the stained sections were analyzed using confocal microscopy. A minimum of ˜10 high power fields with ˜2000 nuclei/field were counted for each sample.
Heart tissues were collected for molecular analyses were performed in Bae, et al., 2010, Am J Physiol Heart Circ Physiol 299:H1374. For RT-PCR ribosomal 18S primers acted as internal controls and all RT-PCR signals were normalized to the 18S signal of the corresponding RT products. For Western blot analysis, the protein content was measured using BCA assay. Actin protein expression was used as an internal control for protein loading.
The optimal cutting temperature (OCT)-embedded tissues were fixed in 4% paraformaldehyde. Tissue sections were incubated with 5 μM dihydroethidium (DHE, Sigma-Aldrich) at 37° C. for 30 min in a humidified chamber protected from light. Then, 4′,6-diamidino-2-phenylindole (DAPI) was applied. Images were acquired by confocal fluorescence microscope.

[2] = tested on: nitric oxide production in LPS-treated cells; assay: Nitric oxide generation in LPS-treated cells (Griess reaction); type: cell-based; conditions: HBA alone
Experimental: as §1
Nitric oxide is one of major sources of oxidative stress and a well-known pro-inflammatory mediator in the pathogenesis of inflammation (Lundberg, et al., 1997, Nature Medicine 3:30). The effects of BRAP on the generation of nitric oxide in LPS-treated cells were studied using a colorimetric assay based on the Griess reaction.

TNF-α = TNF-α level in LPS-stimulated macrophage cells; type: cell-based, mouse
Experimental: as §1, §2

[3] = tested on: mouse macrophage (RAW 264.7) cells stimulated by LPS; assay: Intracellular ROS generation in LPS-stimulated macrophages (DCFH-DA, flow cytometry); type: cell-based; conditions: HBA 0.5 mM; LPS 1 μg/mL
Experimental: as §1
The anti-oxidant activities of BRAP were examined using mouse macrophage (RAW 264.7) and fibroblast (NIH/3T3) cells stimulated by LPS (lipopolysaccharide) (FIGS. 4A-4B). Intracellular ROS production in the stimulated cells was analyzed by flow cytometry using DCFH-DA ([…]-diacetate), which can be oxidized by the action of various intracellular oxidants such as H2O2 and hydroxyl radical to become fluorescent […] (DCF) (Kim, et al., 2011, Biomat. 32:3021; Cho, et al., 2012, Adv. Funct. Mat. 22:4038). Untreated cells have no significant DCF fluorescence.

With `OCc1ccc(O)cc1` [HBA, 4-hydroxybenzyl alcohol, reference compound] the iNOS level (iNOS) was “failed to reduce iNOS level”, the “chemiluminescence intensity (H2O2 scavenging)” value [1] was “did not reduce chemiluminescence intensity” and the “ROS generation (DHE staining) in liver” value (hepatic I/R injury) was “suppressed”. For the same molecule, the “protection from I/R-induced liver damage (serum ALT)” value (hepatic I/R injury) was “much less potent protective effect”, the “hepatic damages (histology, H/E)” value (hepatic I/R injury; 1 hour ischemia/12 hour reperfusion, same dose of HBA and BRAP) was “minimal therapeutic effects” and the TNF-α protein expression (hepatic I/R injury; same dose of HBA and BRAP) was “minimal inhibitory effects”. For the same molecule, the “cleaved caspase-3 protein expression” value (hepatic I/R injury; same dose of HBA and BRAP) was “minimal inhibitory effects”, the “hepatic apoptosis (TUNEL)” value (hepatic I/R injury; same dose of HBA and BRAP) was “modest inhibitory effects” and the “concentration at which nitric oxide production was inhibited” value [2] was “higher than 0.5 mM”. For the same molecule, the TNF-α level (TNF-α) was “reduced the expression of TNF-α but only at a higher dose than BRAP” and the “inhibition of LPS-induced ROS generation” value [3] was “moderate inhibitory effects”.
